Like-named read-outs stand apart in the source and are kept apart here.
Experiments:
[1] = target: full-length P. pyralis luciferase (Photinus pyralis, UniProt P08659, K549A/L550V/N119G/N50D/S548I); type: cell-based; conditions: CC_NCI screening, normalized to on-plate 0.3% DMSO controls; for Luciferase Assay % Lum: full-length luciferase counter-screen luminescence; for Luciferase Assay Z-score: full-length luciferase counter-screen
Clone V cells [2] = assay: CellTiter Blue (CTB) cell viability counter-screen; conditions: CC_NCI screening, normalized to on-plate 0.3% DMSO controls; for Toxicity Assay % Fluor: CTB cell viability fluorescence; for Toxicity Assay Z-score: CTB cell viability
[3] = target: T1, FGF14:Nav1.6 C-tail complex (Homo sapiens, UniProt Q92915+Q9UQD0); assay: Split-luciferase complementation assay (LCA) in Clone V double stable HEK293 cells; type: cell-based; conditions: for Split Luciferase Assay % Lum Set 1 / Split Luciferase Assay Z-score Set 1: biological replicate Set 1; for Split Luciferase Assay % Lum Set 1 / Split Luciferase Assay %Lum Set 2: normalized to on-plate 0.3% DMSO controls (n=16 per plate); for Split Luciferase Assay %Lum Set 2 / Split Luciferase Assay Z-score Set 2: biological replicate Set 2; for Split Luciferase Assay Z-score Set 1 / Split Luciferase Assay Z-score Set 2: normalized to on-plate 0.3% DMSO controls; for Split Luciferase Assay %Lum Avg: average of Set 1 and Set 2, normalized to 0.3% DMSO controls
T1 construct: polymerase chain reaction (PCR) amplification of the FGF14 open reading frame (nt 1–855); C-terminal fragment of Nav1.6 (amino acids 1763–1976) fused with CD4ΔC-tail (amino acids 1–395); expressed in transfected cells
T1 sequence (Q92915 1-252 isoform Q92915-2): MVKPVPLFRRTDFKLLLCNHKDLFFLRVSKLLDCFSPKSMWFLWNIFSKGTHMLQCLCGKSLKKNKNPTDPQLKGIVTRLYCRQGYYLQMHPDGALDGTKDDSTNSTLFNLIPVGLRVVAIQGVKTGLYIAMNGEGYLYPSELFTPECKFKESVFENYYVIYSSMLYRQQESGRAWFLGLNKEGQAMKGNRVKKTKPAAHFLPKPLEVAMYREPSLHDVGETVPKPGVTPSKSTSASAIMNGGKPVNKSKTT
T1 sequence (Q9UQD0 1763-1976 limits assumed): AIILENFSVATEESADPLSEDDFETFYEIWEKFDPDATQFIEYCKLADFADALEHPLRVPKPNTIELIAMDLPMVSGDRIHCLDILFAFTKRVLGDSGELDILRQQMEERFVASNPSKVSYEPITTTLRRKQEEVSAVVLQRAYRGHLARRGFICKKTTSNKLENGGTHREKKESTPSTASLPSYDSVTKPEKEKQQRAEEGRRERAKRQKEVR

Clone V cells [4] = tested on: Clone V cells
[5] = CC_NCI screening, LCA luminescence

Chain of full-length P. pyralis luciferase (P08659 whole entry N50D/N119G/S548I/K549A/L550V, looked up): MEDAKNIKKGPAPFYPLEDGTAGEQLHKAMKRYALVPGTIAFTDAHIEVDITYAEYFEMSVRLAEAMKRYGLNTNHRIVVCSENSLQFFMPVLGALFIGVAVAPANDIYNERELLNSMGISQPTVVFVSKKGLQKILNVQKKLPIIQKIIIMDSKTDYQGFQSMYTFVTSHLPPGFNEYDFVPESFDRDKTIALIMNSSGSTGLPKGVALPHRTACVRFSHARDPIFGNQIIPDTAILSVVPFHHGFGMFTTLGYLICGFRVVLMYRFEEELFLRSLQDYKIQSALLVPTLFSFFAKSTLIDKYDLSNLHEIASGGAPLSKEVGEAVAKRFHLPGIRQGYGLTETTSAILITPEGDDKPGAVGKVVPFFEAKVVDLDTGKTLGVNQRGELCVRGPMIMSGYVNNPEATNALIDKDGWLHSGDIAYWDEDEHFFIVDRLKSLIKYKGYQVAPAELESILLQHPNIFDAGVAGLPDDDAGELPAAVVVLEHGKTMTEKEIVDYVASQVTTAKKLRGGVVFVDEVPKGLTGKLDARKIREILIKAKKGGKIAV

SMILES | Luciferase Assay % Lum [1] [%] | Luciferase Assay Z-score [1] | Toxicity Assay % Fluor (Clone V cells [2]) [%] | Toxicity Assay Z-score (Clone V cells [2]) | Split Luciferase Assay % Lum Set 1 [3, 5] [%] | Split Luciferase Assay %Lum Set 2 [3, 5] [%] | Split Luciferase Assay Z-score Set 1 ([3]; CC_NCI screening, LCA) | Split Luciferase Assay Z-score Set 2 ([3]; CC_NCI screening, LCA) | Split Luciferase Assay %Lum Avg ([3]; CC_NCI screening) [%] | also measured
CCCS(=O)(=O)Nc1ccc(F)c(C(=O)c2c[nH]c3ncc(-c4ccc(Cl)cc4)cc23)c1F [Vemurafenib] | 93.28 | -0.86 | 86.56 | -1.88 | 104.69 | 105.07 | 0.38 | 0.41 | 104.88 | 
Nc1nc(Cl)nc2c1ncn2[C@H]1C[C@H](O)[C@@H](CO)O1 [Cladribine] | 98.25 | -0.22 | 83.86 | -2.26 |  |  |  | 3.04 |  | 
CCCS(=O)(=O)Nc1ccc(F)c(C(=O)c2c[nH]c3ncc(-c4ccc(Cl)cc4)cc23)c1F [PLX4032] | 83.18 | -2.15 | 81.90 | -2.53 | 51.42 | 47.85 | -3.93 | -4.24 | 49.64 | 
CO[C@H]1C[C@@H]2CC[C@@H](C)[C@@](O)(O2)C(=O)C(=O)N2CCCC[C@H]2C(=O)O[C@H]([C@H](C)C[C@@H]2CC[C@@H](O)[C@H](OC)C2)CC(=O)[C@H](C)/C=C(\C)[C@@H](O)[C@@H](OC)C(=O)[C@H](C)C[C@H](C)/C=C/C=C/C=C/1C [RAPAMYCIN] | 77.09 | -2.93 | 110.83 | 1.51 | 95.99 | 74.90 | -0.32 | -2.04 | 85.45 | 
CN1CCN(CCOc2cc(OC3CCOCC3)c3c(Nc4c(Cl)ccc5c4OCO5)ncnc3c2)CC1 [AZD 0530] | 98.71 | -0.17 | 89.05 | -1.53 | 36.20 | 60.34 | -5.16 | -3.23 | 48.27 | 
CN(C)C/C=C/C(=O)Nc1cc2c(Nc3ccc(F)c(Cl)c3)ncnc2cc1O[C@H]1CCOC1 [Afatinib] | 73.64 | -3.38 | 82.04 | -2.51 | 72.08 | 61.38 | -2.26 | -3.14 | 66.73 | 
Cc1ccc(Nc2nccc(N(C)c3ccc4c(C)n(C)nc4c3)n2)cc1S(N)(=O)=O [PAZOPANIB] | 97.40 | -0.33 | 86.91 | -1.83 | 100.34 | 122.76 | 0.03 | 1.85 | 111.55 | 
Cn1nnc2c(C(N)=O)ncn2c1=O [Temozolomide] | 99.34 | -0.09 | 84.35 | -2.19 | 106.86 | 109.23 | 0.55 | 0.75 | 108.05 | 
CN1CCN(CCOc2cc(OC3CCOCC3)c3c(Nc4c(Cl)ccc5c4OCO5)ncnc3c2)CC1 [SARACATINIB] | 107.97 | 1.02 | 108.09 | 1.13 | 85.12 | 98.83 | -1.20 | -0.10 | 91.97 | 
Nc1nc2[nH]cc(CCc3ccc(C(=O)N[C@@H](CCC(=O)O)C(=O)O)cc3)c2c(=O)[nH]1 [Pemetrexed] | 94.26 | -0.73 | 94.67 | -0.74 | 112.30 | 110.27 | 0.99 | 0.84 | 111.29 | 
C[C@]1(c2nc3c(C(N)=O)cccc3[nH]2)CCCN1 [ABT-888] | 105.22 | 0.67 | 107.03 | 0.98 | 75.34 | 93.63 | -1.99 | -0.52 | 84.48 | 
Cc1ccc(NC(=O)c2ccc(CN3CCN(C)CC3)cc2)cc1Nc1nc(-c2cccnc2)cs1 [MASITINIB] | 52.92 | -6.03 | 86.99 | -1.82 | 5.76 | 16.64 | -7.62 | -6.78 | 11.20 | 
CN(N=O)C(=O)N[C@@H](C=O)[C@@H](O)[C@H](O)[C@H](O)CO [Streptozocin] | 99.54 | -0.06 | 96.94 | -0.43 | 130.78 | 124.84 | 2.49 | 2.02 | 127.81 | 
COc1cc(Nc2c(C#N)cnc3cc(OCCCN4CCN(C)CC4)c(OC)cc23)c(Cl)cc1Cl [BOSUTINIB] | 108.17 | 1.05 | 88.31 | -1.63 |  | 94.67 | 0.73 | -0.43 | 101.85 | 
C[C@@H](Oc1cc(-c2cnn(C3CCNCC3)c2)cnc1N)c1c(Cl)ccc(F)c1Cl [PF-2341066] |  |  | 82.92 | -2.39 | 59.03 | 48.89 | -3.31 | -4.16 | 53.96 | 
Cc1cc(C(C)Nc2ccccc2)c2nc(N3CCOCC3)cc(=O)n2c1 (stereo not shown) [TGX 221] |  |  |  |  |  |  |  |  |  | Luciferase Assay % Lum (full-length luciferase counter-screen) [1]: 101.89%; Luciferase Assay Z-score (full-length luciferase counter-screen) [1]: 0.24; Toxicity Assay Z-score (CTB cell viability) (Clone V cells [4]): 2.19; Split Luciferase Assay Z-score Set 1 ([3]; CC_NCI screening): 0.82; Split Luciferase Assay % Lum Set 1 ([3]; CC_NCI screening): 110.12%; Split Luciferase Assay Z-score Set 2 ([3]; CC_NCI screening): 1.94; Split Luciferase Assay %Lum Set 2 ([3]; CC_NCI screening): 123.80%; Split Luciferase Assay %Lum Avg [3]: 116.96%
Nc1nc2nc[nH]c2c(=S)[nH]1 [Thioguanine] | 92.95 | -0.90 |  |  | 93.82 | 110.27 | -0.50 | 0.84 | 102.05 | Toxicity Assay % Fluor (Clone V cells [4]; human, 16 h, 30 µM): 96.19%; Toxicity Assay Z-score (Clone V cells [4]; human, 16 h, 30 µM): -0.53
Cl.N[C@@H](Cc1ccc(N(CCCl)CCCl)cc1)C(=O)O [Melphalan hydrochloride] |  |  |  |  |  |  |  |  |  | Luciferase Assay % Lum (full-length luciferase counter-screen) [1]: 85.47%; Luciferase Assay Z-score (full-length luciferase counter-screen) [1]: -1.86; Toxicity Assay % Fluor (CTB cell viability fluorescence) (Clone V cells [4]): 107.21%; Toxicity Assay Z-score (CTB cell viability) (Clone V cells [4]): 1.01; Split Luciferase Assay Z-score Set 1 ([3]; CC_NCI screening): -1.64; Split Luciferase Assay % Lum Set 1 ([3]; CC_NCI screening): 79.68%; Split Luciferase Assay Z-score Set 2 ([3]; CC_NCI screening): -0.10; Split Luciferase Assay %Lum Set 2 ([3]; CC_NCI screening): 98.83%; Split Luciferase Assay %Lum Avg [3]: 89.26%
COc1cc2/c(=N/c3ccc(Br)cc3F)nc[nH]c2cc1OCC1CCN(C)CC1 [VANDETANIB] | 102.19 | 0.28 |  |  | 85.12 | 88.43 | -1.20 | -0.94 | 86.77 | Toxicity Assay % Fluor (Clone V cells [4]): 85.66%; Toxicity Assay Z-score (Clone V cells [4]): -2.01

Source: publication PMC6858373 (Scientific Reports, 2019)
